Source: US20240208912A1 (Mirati Therapeutics, Inc., priority 2021, published 2024)
Read-outs that look alike come from different tables or passages of the source.

How the values were obtained:
PRMT5/MEP50 complex [1] = target: T1, PRMT5/MEP50 complex (Homo sapiens, UniProt O14744); assay: PRMT5:MEP50 FlashPlate Assay (histone H4 peptide substrate, plus and minus MTA); format: biochemical
T1 construct: purchased Reaction Biology Corporation
Description: The PRMT5 inhibitory activity of compounds of the present invention was determined using either a PRMT5:MEP50 FlashPlate Assay (Reaction Biology Corporation) or a PRMT5:MEP50 HotSpot Assay (Reaction Biology Corporation).

PRMT5/MEP50 complex [2] = target: T1, PRMT5/MEP50 complex; assay: PRMT5:MEP50 HotSpot Assay (full-length histone H2A substrate, plus and minus MTA); format: biochemical
Procedure, shortened: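 Radiometric HotSpot format using recombinant full-length histone H2A as substrate, run with and without MTA. Reactions were stopped and spotted onto filter paper. Tritiated H2A was quantified by scintillation counting.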

HCT116 parental cells = assay: Proliferation assay (CellTiter-Glo, 10 days) in HCT116 parental cells; format: cell-based; settings: CellTiter-Glo after 10 days of treatment
Description: (§1) Control samples were analyzed in parallel.
Briefly, on Day 0, 250 HCT116 parental or HCT116 homozygous MTAP knockout cell were seeded in 96 well plates in McCoy's 5A supplemented with […] fetal bovine serum and pen/strep and the cells were incubated overnight at 37° C. plus 5% CO2.
The following day, cells were treated with DMSO vehicle control or a dose response of PRMT5 inhibitors and incubated at 37 C plus 5% CO2 for five days. On Day 6, the cells were trypsinized and split 1:10 into new 96-well plates with fresh medium containing the same concentration of PRMT5 inhibitor and incubated for an additional 5 days at 37° C. plus 5% CO^2.
On Day 11, the viability of the cells was measured using a CTG assay kit (CellTiter-Glo; Promega cat.no G7573) in accordance with the manufacturer's instructions. The IC50 values for each compound after 10 days of treatment were calculated using GraphPad PRISM software.

[3] = test system: HCT116 homozygous MTAP knockout cells; assay: Proliferation assay (CellTiter-Glo, 10 days) in HCT116 homozygous MTAP knockout cells; format: cell-based; settings: CellTiter-Glo after 10 days of treatment, read-out: Proliferation IC50 (nM) HCT116 MTAP_KO
Procedure, shortened: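 MTAP-null HCT116 clone made by CRISPR/Cas9 knockout of both alleles, tested beside parental cells. Cells dosed the day after seeding, split 1:10 on day 6 into fresh medium with the same compound level, and read on day 11 by CellTiter-Glo. IC50 taken after 10 days of exposure.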

[4] = test system: PRMT5-dependent Symmetric Di-methyl Arginine signal in HCT116 parental cells; assay: SYM11 In-Cell Western in HCT116 parental cells; format: cell-based; settings: HCT116 parental cells, 4 days of treatment, SYM11/DRAQ5 ratio as percent of DMSO control, read-out: In-cell-Western (SYM11) IC50 (nM) HCT216 parental
Description: as §1
Briefly, on Day 0, 2,000 HCT116 parental or HCT116 homozygous MTAP knockout cells were seeded in 96 well plates in McCoy's 5A supplemented with 10% fetal bovine serum and pen/strep and the cells were incubated overnight at 37° C. plus 5% CO2. The following day, cells were treated with DMSO vehicle control or a dose response of PRMT5 inhibitors, and incubated at 37° C. plus 5% CO^2 for four days.
After 4 days of treatment, the cells were fixed by adding 50 μl of 4% paraformaldehyde solution to each well and the cells were incubated for 20 min at room temperature. The paraformaldehyde solution was removed, 150 μl of ice-cold methanol was added and the plate was placed −20° C. for 10 minutes. The methanol was removed, 150 μl of Odyssey Blocking buffer+0.05% Tween20 was added and the plate was incubated at room temperature with shaking for one hour.
The primary SYM11 antibody solution was removed by aspiration and the wells were washed three consecutive times with phosphate buffered saline containing 0.1% Tween-20 (PBST).
The secondary antibody solution was removed by aspiration and the wells were washed three consecutive times with PBST.
The SYM11 signal and the DRAQ5 signal were quantified using a Li-Cor Odyssey machine reading at […], respectively. The SYM11/DRAQ5 ratio was used to calculate the inhibition of Symmetric Dimethyl Arginine as percent of DMSO control.

[5] = test system: PRMT5-dependent Symmetric Di-methyl Arginine signal in HCT116 homozygous MTAP Knockout cells; assay: SYM11 In-Cell Western in HCT116 homozygous MTAP knockout cells; format: cell-based; settings: 4 days of treatment, SYM11/DRAQ5 ratio as percent of DMSO control, read-out: In-cell-Western (SYM11) IC50 (nM) HCT116 MTAP_KO
Procedure, shortened: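 HCT116 cells with CRISPR homozygous MTAP knockout, alongside parental cells, treated four days with PRMT5 inhibitor dose response at 37° C., 5% CO2 in McCoy's 5A with 10% FBS.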

[6] = in the absence of MTA, read-out: IC50
[7] = read-out: IC50 + 2 μM MTA, in the presence of 2 μM MTA
[8] = IC50 + 2 μM MTA, in the presence of 2 μM MTA

T1 sequence (O14744 2-637 limits assumed): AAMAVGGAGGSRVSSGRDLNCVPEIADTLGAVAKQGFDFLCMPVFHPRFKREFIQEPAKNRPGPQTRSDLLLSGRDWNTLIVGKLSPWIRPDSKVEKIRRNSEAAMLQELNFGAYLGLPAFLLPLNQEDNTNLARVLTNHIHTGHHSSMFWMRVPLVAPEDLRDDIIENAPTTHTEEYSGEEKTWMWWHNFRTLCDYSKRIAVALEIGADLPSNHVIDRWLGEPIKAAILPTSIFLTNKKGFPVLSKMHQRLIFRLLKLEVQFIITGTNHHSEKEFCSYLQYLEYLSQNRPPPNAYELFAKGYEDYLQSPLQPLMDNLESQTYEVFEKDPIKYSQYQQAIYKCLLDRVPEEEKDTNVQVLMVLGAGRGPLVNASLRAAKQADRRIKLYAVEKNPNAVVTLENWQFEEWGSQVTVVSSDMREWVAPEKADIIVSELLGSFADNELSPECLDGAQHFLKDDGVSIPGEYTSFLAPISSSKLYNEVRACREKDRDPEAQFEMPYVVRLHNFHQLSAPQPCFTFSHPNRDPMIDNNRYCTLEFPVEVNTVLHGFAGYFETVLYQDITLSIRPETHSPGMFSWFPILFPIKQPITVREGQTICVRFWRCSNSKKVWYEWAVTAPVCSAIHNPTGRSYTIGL
T1 sequence (Q9BQA1 2-342 partner limits assumed): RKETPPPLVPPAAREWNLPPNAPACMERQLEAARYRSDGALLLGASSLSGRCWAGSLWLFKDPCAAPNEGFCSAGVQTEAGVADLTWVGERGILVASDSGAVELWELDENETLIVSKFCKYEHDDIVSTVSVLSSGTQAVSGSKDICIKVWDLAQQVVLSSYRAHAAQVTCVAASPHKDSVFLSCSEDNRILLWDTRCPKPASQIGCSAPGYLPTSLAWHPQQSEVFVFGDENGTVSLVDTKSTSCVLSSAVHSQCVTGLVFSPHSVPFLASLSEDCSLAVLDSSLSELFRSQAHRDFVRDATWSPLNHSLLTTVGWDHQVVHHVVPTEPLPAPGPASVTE

For “4-(aminomethyl)-6-(5-ethoxypyrazolo[1,5-a]pyridin-3-yl)phthalazin-1(2H)-one [Example 4-158]”, the IC50 (PRMT5/MEP50 complex [1]; [6]) was 113 nM, the IC50 (PRMT5/MEP50 complex [1]; [7]) was 2.8 nM and the IC50 (PRMT5/MEP50 complex [2]; [7]) was 1460 nM. For the same compound, the IC50 (HCT116 parental cells) was 1740 nM, the IC50 [3] was 2200 nM and the IC50 [4] was over 10000 nM. For the same compound, the IC50 [5] was over 10000 nM.
`Cn1ncc(-c2ccc3c(=O)[nH]nc(CN)c3c2)c1-c1c(F)ccc(OC2CC2)c1C#N` (single isomer, unassigned) [Example 16-21, (P)-2-[4-[4-(aminomethyl)-1-oxo-2H-phthalazin-6-yl]-2-methyl-pyrazol-3-yl]-6-(cyclopropoxy)-3-fluoro-benzonitrile] was tested, and the IC50 (PRMT5/MEP50 complex [2]; [8]) was 462 nM, the IC50 (HCT116 parental cells; Homo sapiens, HCT-116, 240 h) was 4210 nM and the IC50 [3] was 112 nM. For the same compound, the IC50 [4] was 4480 nM and the IC50 [5] was 65 nM.
`Cn1ncc(-c2ccc3c(=O)[nH]nc(CN)c3c2)c1-c1c(F)ccc(OC2CC2)c1C#N` (single isomer, unassigned) [Example 16-22, (M)-2-[4-[4-(aminomethyl)-1-oxo-2H-phthalazin-6-yl]-2-methyl-pyrazol-3-yl]-6-(cyclopropoxy)-3-fluoro-benzonitrile] was tested, and the IC50 (PRMT5/MEP50 complex [2]; [8]) was 107 nM, the IC50 (HCT116 parental cells) was 3620 nM and the IC50 [3] was 17 nM. It also gave an IC50 [4] of 1060 nM and an IC50 [5] of 4 nM.
In the case of `Cc1c(F)c(-c2c(-c3cc(Cl)c4c(=O)[nH]nc(CN)c4c3)cnn2C)c(C#N)c2cc(Cl)cnc12` (single isomer, unassigned) [Example 16-110, (M)-6-(4-(4-(aminomethyl)-8-chloro-1-oxo-1,2-dihydrophthalazin-6-yl)-1-methyl-1H-pyrazol-5-yl)-3-chloro-7-fluoro-8-methylquinoline-5-carbonitrile], the IC50 (PRMT5/MEP50 complex [2]; [8]) is reported as 19 nM, the IC50 (HCT116 parental cells; Homo sapiens, HCT-116, 240 h) is reported as 423 nM and the IC50 ([3]; Homo sapiens, HCT-116, 240 h) is reported as 16 nM. It also gave an IC50 ([4]; Homo sapiens, HCT-116, 96 h) of 176 nM and an IC50 ([5]; Homo sapiens, HCT-116, 96 h) of 6 nM.
Compound `CCOc1cc(-c2cnn(C)c2-c2c(F)c(C)c3ncc(Cl)cc3c2C#N)cc2c(CN)n[nH]c(=O)c12` (single isomer, unassigned) [Example 16-111, (P)-6-(4-(4-(aminomethyl)-8-ethoxy-1-oxo-1,2-dihydrophthalazin-6-yl)-1-methyl-1H-pyrazol-5-yl)-3-chloro-7-fluoro-8-methylquinoline-5-carbonitrile] has an IC50 (PRMT5/MEP50 complex [2]; [8]) of 451 nM, an IC50 (HCT116 parental cells; Homo sapiens, HCT-116, 240 h) of 57 nM and an IC50 ([3]; Homo sapiens, HCT-116, 240 h) of 21 nM. It also gave an IC50 ([4]; Homo sapiens, HCT-116, 96 h) of 686 nM and an IC50 ([5]; Homo sapiens, HCT-116, 96 h) of 344 nM.
`CCc1cncc(-c2ccc3c(=O)[nH]nc(CN)c3c2)c1` [Example 3-13, 4-(aminomethyl)-6-(5-ethylpyridin-3-yl)-phthalazin-1(2H)-one] showed an IC50 (PRMT5/MEP50 complex [1]; [6]) of 420 nM.
`COc1cccc(-c2c(-c3ccc4c(=O)[nH]nc(CN)c4c3)cnn2C)c1` [Example 4-93, 4-(aminomethyl)-6-(5-(3-methoxyphenyl)-1-methyl-1H-pyrazol-4-yl)phthalazin-1(2H)-one] showed an IC50 (PRMT5/MEP50 complex [1]; [6]) of 35 nM.
For `Cc1cccc(-c2c(-c3ccc4c(=O)[nH]nc(CN)c4c3)cnn2C)c1` [Example 4-94, 4-(aminomethyl)-6-(1-methyl-5-(m-tolyl)-1H-pyrazol-4-yl)phthalazin-1(2H)-one], the IC50 (PRMT5/MEP50 complex [1]; [6]) was 33 nM.
Work on `Cc1nc2cncc(-c3ccc4c(=O)[nH]nc(CN)c4c3)c2o1` [Example 4-110, 4-(aminomethyl)-6-(2-methyloxazolo[4,5-c]pyridin-7-yl)phthalazin-1(2H)-one] yielded an IC50 (PRMT5/MEP50 complex [1]; [6]) of over 100000 nM.
In the case of `COCc1nc2sc(-c3c(-c4ccc5c(=O)[nH]nc(CN)c5c4)cnn3C)c(C#N)c2cc1Cl` [Example 4-272, 2-(4-(4-(aminomethyl)-1-oxo-1,2-dihydrophthalazin-6-yl)-1-methyl-1H-pyrazol-5-yl)-5-chloro-6-(methoxymethyl)thieno[2,3-b]pyridine-3-carbonitrile], the IC50 (PRMT5/MEP50 complex [2]; [8]) is reported as 260 nM, the IC50 (HCT116 parental cells; Homo sapiens, HCT-116, 240 h) is reported as over 10000 nM and the IC50 ([3]; Homo sapiens, HCT-116, 240 h) is reported as 245 nM. The IC50 ([4]; Homo sapiens, HCT-116, 96 h) was over 1000 nM and the IC50 ([5]; Homo sapiens, HCT-116, 96 h) was 55 nM.
With `CC(=O)Nc1cc(-c2cnn(C)c2-c2sc3ccccc3c2C#N)cc2c(CN)n[nH]c(=O)c12` [Example 15-8, N-(1-(aminomethyl)-7-(5-(3-cyano-benzo[b]thiophen-2-yl)-1-methyl-1H-pyrazol-4-yl)-4-oxo-3,4-dihydrophthal-azin-5-yl)acetamide] the IC50 (PRMT5/MEP50 complex [2]; [8]) was 109 nM, the IC50 (HCT116 parental cells; Homo sapiens, HCT-116, 240 h) was 155 nM and the IC50 ([3]; Homo sapiens, HCT-116, 240 h) was 96 nM. For the same compound, the IC50 ([4]; Homo sapiens, HCT-116, 96 h) was 720 nM and the IC50 ([5]; Homo sapiens, HCT-116, 96 h) was 96 nM.
